Test results reported in publication PMC6120666 (The EMBO Journal, 2018).

Legend:
[1] = system: RAW264.7 cells (TLR4 activation by LPS); assay: TNF ELISA, LPS-stimulated RAW264.7 cells; assay type: cell-based, mouse; conditions: LPS 10 ng/ml; inhibitor even at 1 μM
Protocol: Figure EV3 Activity of select CSLP inhibitors in MDP and LPS‐stimulated RAW264.7 macrophages • A, B ELISA measurement of TNF release from RAW264.7 cells treated with MDP (10 μg/ml, 24 h) (A) or LPS (10 ng/ml) (B) and CSLP compounds as indicated. Values are expressed relative to the TNF release in cells treated with MDP without inhibitor (A) or as ng/ml TNF (B). Data information: Data represent the mean ± SEM of 2–3 independent experiments. Statistical significance in (B) is determined in relation to […] samples without inhibitor *P < 0.05, **P < 0.01, n.s., not significant. Two‐tailed unpaired Student's t‐test was used to determine statistical significance. […]
For HEKBlue assay, cells were seeded into clear 96 well plates at 7.5x10^3 cells/well and allowed to attach for 48 h. […] After 8-9 h, absorbance at 620 nm was measured using Victor3V plate reader (Perkin Elmer, Waltham, MA). Values of media-only wells were subtracted and %inhibition for each compound concentration relative to the DMSO/L18-MDP-treated controls were calculated.
Inhibition values + StDev were fitted by non-linear regression using Prism software (GraphPad Software, La Jolla, CA) to calculate IC50 values. […] After induction, 20 μl of media was mixed with 180 μl of QUANTI-Blue reagent (InvivoGen) and incubated at 37 °C for 3-4 h, followed by absorbance measurement at 620 nm. […]

THP1Blue cells, NOD1 = assay: THP1Blue NF-κB-SEAP reporter assay, TriDAP (NOD1); assay type: cell-based; conditions: Homo sapiens; TriDAP 10 μg/ml; read-out: THP1-Blue NF-κB Inhibition IC50 (TriDAP)
[2] = system: U2OS/NOD2, THP1, RAW264.7 and HEKBlue cells; assay: CellTiter-Glo viability assay; assay type: cell-based; conditions: U2OS/NOD2, THP1, RAW264.7, HEKBlue; 24 h; up to 1 µM
Protocol: Cell viability was determined using CellTiter‐Glo assay (Promega). […] Kinase activities were determined using ADPGlo assay (Promega). • Structure of the active conformation of RIPK2 kinase domain in complex with AMP‐PNP (PDB ID: 5AR3). Figure depicts locations of the adenine and deep pockets. […] Key residues discussed in the text are shown as sticks (Lys/Glu Glu‐in bond—bottom left, catalytic Asp residues (Asp146/Asp164)—bottom right, R‐spine—right). P‐loop of CSLP18 structure is shown in yellow. Structured segment of activation segment (AS) observed in active conformation structures is shown in red. • Structure of RIPK2 kinase domain (gray ribbons) in complex with CSLP18 (orange) (PDB ID 6FU5). Sticks are shown for residues in the vicinity of the cavity surrounding the key inhibitor position R1. A 2Fo‐Fc electron density map contoured at 1 sigma is shown for the inhibitor and the residues lining the key region around inhibitor R^1 position. • Molecular docking model of RIPK2 kinase domain in complex with CSLP37 (yellow) based on RIPK2/CSLP18 structure (Fig 3D). […]
GST-BIR2-XIAP as indicated. Intensity quantification of SPOTs was performed using ImageJ software (Schneider et al., 2012). […]
for cell death) or vehicle for 24h. Viability was determined using the CellTiter-Glo® luminescent cell […]

| Compound | TNF release following LPS [1] | IC50 (THP1Blue cells, NOD1) | toxicity in the cell lines used [2] |
| --- | --- | --- | --- |
| CCCS(=O)(=O)Nc1cc(-c2cc(-c3ccc(N4CCNCC4)cc3)cnc2N)cc(F)c1OC [CSLP37] | neither CSLP37 nor CSLP43 attenuated | 20.8 ± 1.2 nM | did not have measurable toxicity |
| CCCS(=O)(=O)Nc1cc(-c2cc(-c3ccc(N4CCNCC4)cc3)cnc2N)cc(OC)c1OC [CSLP43] | neither CSLP37 nor CSLP43 attenuated | 1.43 ± 0.1 nM | did not have measurable toxicity |
